One series concerns wild type yeast cells. The conditions noted are these: 10 micrograms/ml doxycycline (Gari et al., 1997); cited from earlier work.
Series [1] has as its system yeast Saccharomyces cerevisiae. Briefly: Yeast growth under methotrexate titration. It is filed as cell-based. The conditions noted are these: 100 μM methotrexate titration.
The next series relates to yeast gene YOL031C. The experiment in a line: Transcript array gene expression response to methotrexate, Hill function fit. The series is classed as cell-based, Saccharomyces cerevisiae. From the text: FIG. 2 illustrates an example of perturbation response profiles measured at discrete protein activity levels of dihydrofolate reductase. Specifically, the figure illustrates mRNA expression levels of 30 genes of the yeast Saccharomyces cerevisiae that, of the 6000 genes in the genome of this yeast, had the largest expression changes in response to six different titrations of the drug methotrexate, which is known to act primarily by disrupting the activity of dihydrofolate reductase. These gene expression level measurements were made with gene transcript arrays, as described in Section 5.5. The perturbation response profiles in FIG. 2 can be interpolated according to the methods disclosed in Section 5.4, below, to provide perturbation response profiles for any activity level of dihydrofolate reductase, i.e., perturbation response curves.
In model fitting, the perturbation responses are interpolated by approximating each by a single parameterized function. An exemplary model-fitting function appropriate for approximating transcriptional state data is the Hill function, which has adjustable parameters a, u0 and n.
[formula] the adjustable parameters are selected independently for each cellular constituent of the perturbation response. Preferably, the adjustable parameters are selected so that for each cellular constituent the sum of the squares of the distances H(pl) from Rk(pl) is minimized. This preferable parameter adjustment method is known in the art as a least squares fit of H( ) to Rk( ). Other possible model functions are based on polynomial fitting, for example by various known classes of polynomials.
Model fitting with a Hill function is illustrated with respect to FIGS. 2 and 4. As discussed, FIG. 2 illustrates an example of perturbation by methotrexate and identified by measurement. This figure illustrates the RNA expression levels of 30 genes of the yeast S. cerevisiae that, of the approximately 6000 genes in the genome of this organism, had the largest expression changes in response to six different exposure levels of methotrexate. […]

Turning to `C[C@H]1c2cccc(O)c2C(=O)C2=C(O)[C@]3(O)C(=O)C(C(N)=O)=C(O)[C@@H](N(C)C)[C@@H]3[C@@H](O)[C@@H]21` [doxycycline], the “effect on growth rate” value with wild type yeast cells is recorded as “no significant effect”.
On to `CN(Cc1cnc2nc(N)nc(N)c2n1)c1ccc(C(=O)N[C@@H](CCC(=O)O)C(=O)O)cc1` [methotrexate], for which the growth defect in series [1] came out at 50%. Moreover, the “Hill function parameter n” value in the series with yeast gene YOL031C (least squares fit of YOL031C expression response) worked out at 2. For the same compound, the “Hill function parameter a” value in the series with yeast gene YOL031C (least squares fit of YOL031C expression response (log10 expression ratio)) is −0.61. Further, the “Hill function parameter log10(u0)” value in the series with yeast gene YOL031C (least squares fit of YOL031C expression response, methotrexate exposures 3-200 μM) is 1.26.

The record behind these values is US7130746B2, “Computer systems and computer programs for determining protein activity levels using gene expression profiles” (priority 1998, dated 2006).
